Measured values reported in paper PMC11247503 (Journal of Medicinal Chemistry, 2024).
Where a name gives a salt, the structure may show the parent alone.

target: T1, mouse Spns2 (Mus musculus, UniProt Q91VM4); assay: HeLa cell S1P release assay (Spns2 inhibition); type: cell-based; conditions: 1 μM inhibitor; HeLa cells; S1P in media by LC-MS/MS
T1 construct: expressed in transfected cells; host or cells: HeLa cells (G418-resistant pools)
T1 sequence (Q91VM4 1-549): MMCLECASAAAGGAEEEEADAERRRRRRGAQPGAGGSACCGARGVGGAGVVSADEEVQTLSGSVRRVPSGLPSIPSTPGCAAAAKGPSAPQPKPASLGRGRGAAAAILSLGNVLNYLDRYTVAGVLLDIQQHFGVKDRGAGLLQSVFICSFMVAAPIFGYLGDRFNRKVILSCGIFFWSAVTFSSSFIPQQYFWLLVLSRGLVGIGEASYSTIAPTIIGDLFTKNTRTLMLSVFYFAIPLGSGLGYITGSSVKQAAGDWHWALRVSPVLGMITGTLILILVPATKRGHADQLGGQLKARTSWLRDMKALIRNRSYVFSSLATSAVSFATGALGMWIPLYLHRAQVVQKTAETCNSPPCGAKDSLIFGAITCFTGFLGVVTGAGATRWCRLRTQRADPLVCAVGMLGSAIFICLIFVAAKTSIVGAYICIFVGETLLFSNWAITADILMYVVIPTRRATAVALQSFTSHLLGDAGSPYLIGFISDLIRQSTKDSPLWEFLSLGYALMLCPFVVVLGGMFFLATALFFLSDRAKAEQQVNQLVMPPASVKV
Description: With a library of analogs of SLB1122168 containing phenylurea, phenylcarbamate, and benzamide as bioisostere of the benzoxazole, we investigated their potential in inhibiting S1P transport using a HeLa cell assay.[36]−[38],[43] Briefly, in this assay, Spns2 is overexpressed whereas the S1P-degrading enzymes (lyase or phosphatases) were blocked with inhibitors.[44],[45] Inhibition of S1P transport is determined by measuring the amount of S1P in the buffer using LC-MS.
This assay was conducted as reported by Kharel et al.[43] Briefly, compounds were assessed in a HeLa cell assay at a 1 μM test concentration, unless noted otherwise. HeLa cells were transfected with a pcDNA3.1 plasmid encoding mouse Spns2, and pools of cells resistant to G418 were selected. S1P catabolic pathways were suppressed by the addition of 4-deoxypyridoxine (1 mM), NaF (2 mM), and Na3VO4 (0.2 mM). After growing cells to near confluence on 12-well tissue culture dishes, growth media was removed, inhibitors were introduced in release media (serum free medium containing 0.2% fatty acid free BSA), and the cells were incubated for 16–18 h at 37 °C. The BSA with bound S1P was concentrated from the release media by TFA-driven precipitation after addition of the d7-S1P internal standard, the S1P extracted from the protein pellet, and quantified by LC-MS/MS. Lower levels of S1P release into the media indicated greater degrees of Spns2 inhibition. Inhibition is reported as the percent decrease in S1P release relative to the control where no inhibitor was introduced.

Compound | %Inhib. (Spns2 inhibition, percent decrease in S1P secretion relative to control) [%]
2-Aminoethyl (4-Decylphenyl)carbamate Hydrochloride [8a] | 44 ± 7

same assay, conditions: 1 μM inhibitor; HeLa cells; S1P in media by LC-MS/MS; 1 µM

Compound | %Inhib. (Spns2 inhibition, percent decrease in S1P secretion relative to control) [%]
CCCCCCCCCCc1ccc(C(=O)N[C@@H]2CCNC2)cc1.Cl [(R)-4c, (R)-4-Decyl-N-(pyrrolidin-3-yl)benzamide Hydrochloride] | 66 ± 1
CCCCCCCCCCc1ccc(C(=O)N[C@H]2CCNC2)cc1.Cl [(S)-4d, (S)-4-Decyl-N-(pyrrolidin-3-yl)benzamide Hydrochloride] | 61 ± 5

same assay, conditions: HeLa, 0.3 μM inhibitor (Figure 5); HeLa cells; read-out: % Inhibition, tail homologation study

Compound | inhibition at 0.3 µM [%]
CCCCCCCCCCCCCc1ccc(NC(=O)N2CCNCC2)cc1 [20g, N-(4-Tridecylphenyl)piperazine-1-carboxamide Hydrogen Chloride] | 27 ± 12
CCCCCCCCCc1ccc(NC(=O)N2CCNCC2)cc1 [20d, N-(4-Nonylphenyl)piperazine-1-carboxamide Hydrogen Chloride] | 61 ± 4
CCCCCCCCc1ccc(NC(=O)N2CCNCC2)cc1 [20c, N-(4-Octylphenyl)piperazine-1-carboxamide Hydrogen Chloride] | 48 ± 7

same assay, conditions: HeLa, 1 μM inhibitor; HeLa cells; S1P in media by LC-MS/MS; read-out: %Inhib. (Spns2 inhibition, percent decrease in S1P secretion relative to control)

Compound | inhibition at 1 µM [%]
CCCCCCCCCCc1ccc(C(=O)N2CC3CCC(C2)N3)cc1 [4k, (3,8-Diazabicyclo[3.2.1]octan-3-yl)(4-decylphenyl)methanone Hydrochloride] | 0
CCCCCCCCCCc1ccc(NC(=O)N2CCN(C)CC2)cc1 [18a, N-(4-Decylphenyl)-4-methylpiperazine-1-carboxamide Hydrochloride] | 43 ± 4
CCCCCCCCCCc1ccc(C(=O)N[C@@H]2CCNC2)cc1.Cl [(R)-4c, (R)-4-Decyl-N-(pyrrolidin-3-yl)benzamide Hydrochloride] | 61 to 66
CCCCCCCCCCc1ccc(C(=O)N2CCNCC2)cc1 [4h, (4-Decylphenyl)(piperazin-1-yl)methanone Hydrochloride] | 68 ± 5
CCCCCCCCCCc1ccc(NC(=O)N2CC3CC2CN3)cc1 (centres unmarked) [11j, N-(4-Decylphenyl)-2,5-diazabicyclo[2.2.1]heptane-2-carboxamide Hydrochloride] | 35
CCCCCCCCCCc1ccc(N(C)C(=O)N2CC3CC2CN3)cc1 (centres unmarked) [17b, N-(4-Decylphenyl)-N-methyl-2,5-diazabicyclo[2.2.1]heptane-2-carboxamide Hydrochloride] | 24 ± 9
CCCCCCCCCCc1ccc(NC(=O)NC2CNC2)cc1 [11b, 1-(Azetidin-3-yl)-3-(4-decylphenyl)urea 2,2,2-Trifluoroacetate] | 59 ± 1
CCCCCCCCCCc1ccc(N(C)C(=O)N2CCNCC2)cc1 [17a, N-(4-Decylphenyl)-N-methylpiperazine-1-carboxamide Hydrochloride] | 13 ± 4
CCCCCCCCCCc1ccc(C(=O)NCCCN)cc1 [4a, N-(3-Aminopropyl)-4-decylbenzamide Hydrochloride] | 39 ± 9

Other lines, results leading:

inhibition at 1 µM [%] | Compound
68 ± 1 | CCCCCCCCCCc1ccc(NC(=O)O[C@@H]2CCNC2)cc1 [(R)-8b, (R)-Pyrrolidin-3-yl (4-Decylphenyl)carbamate Hydrochloride]
20 ± 3 | CCCCCCCCCCc1ccc(C(=O)N[C@H]2CCCNC2)cc1 [(S)-4f, (S)-4-Decyl-N-(piperidin-3-yl)benzamide Hydrochloride]
86 | CCCCCCCCCCc1ccc(NC(=O)N[C@@H]2CCCNC2)cc1 [(R)-11e, (R)-1-(4-Decylphenyl)-3-(piperidin-3-yl)urea Hydrochloride]
49 | CCCCCCCCCCc1ccc(NC(=O)N[C@@H]2CCNC2)cc1 [(R)-11c, (R)-1-(4-Decylphenyl)-3-(pyrrolidin-3-yl)urea Hydrochloride]
61 to 66 | CCCCCCCCCCc1ccc(C(=O)N[C@H]2CCNC2)cc1.Cl [(S)-4d, (S)-4-Decyl-N-(pyrrolidin-3-yl)benzamide Hydrochloride]
73 ± 1 | CCCCCCCCCCc1ccc(C(=O)N[C@@H]2CCCNC2)cc1 [(R)-4e, (R)-4-Decyl-N-(piperidin-3-yl)benzamide Hydrochloride]
47 | CCCCCCCCCCc1ccc(C(=S)N[C@@H]2CCCNC2)cc1 [(R)-15c, (R)-4-Decyl-N-(piperidin-3-yl)benzothioamide Hydrochloride]

same assay, conditions: HeLa, read-out: %Inhib. (Spns2 inhibition, percent decrease in S1P secretion relative to control)

Compound | inhibition at 1 µM [%]
CCCCCCCCCCc1ccc(C(=O)NC2CNC2)cc1 [4b, N-(Azetidin-3-yl)-4-decylbenzamide 2,2,2-Trifluoroacetate] | 77 ± 1
